Assay results taken from patent publication US8614327B2 (Vertex Pharmaceuticals Incorporated, priority 2004, dated 2013).

Target: T1, ΔF508-CFTR (Homo sapiens, UniProt P13569, DEL508-508)
T1 construct: expressed in transfected cells
Test: Membrane potential optical (FRET/VIPR) assay, identification of potentiator compounds
Format: cell-based
Conditions: Table 3, assay not given; for % Activity: relative efficacy
How it was run: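 Double-addition potentiator screen: compound delivered in gluconate-substituted Cl^--free medium, membrane potential followed via CC2-DMPE/DiSBAC2(3) FRET on VIPR. Cells were ΔF508-CFTR-expressing NIH3T3 mouse fibroblasts, held 2 h at 37° C. then 24 h at 27° C. before assay.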

T1 sequence (P13569 with tags, fused parts or gaps DEL508-508): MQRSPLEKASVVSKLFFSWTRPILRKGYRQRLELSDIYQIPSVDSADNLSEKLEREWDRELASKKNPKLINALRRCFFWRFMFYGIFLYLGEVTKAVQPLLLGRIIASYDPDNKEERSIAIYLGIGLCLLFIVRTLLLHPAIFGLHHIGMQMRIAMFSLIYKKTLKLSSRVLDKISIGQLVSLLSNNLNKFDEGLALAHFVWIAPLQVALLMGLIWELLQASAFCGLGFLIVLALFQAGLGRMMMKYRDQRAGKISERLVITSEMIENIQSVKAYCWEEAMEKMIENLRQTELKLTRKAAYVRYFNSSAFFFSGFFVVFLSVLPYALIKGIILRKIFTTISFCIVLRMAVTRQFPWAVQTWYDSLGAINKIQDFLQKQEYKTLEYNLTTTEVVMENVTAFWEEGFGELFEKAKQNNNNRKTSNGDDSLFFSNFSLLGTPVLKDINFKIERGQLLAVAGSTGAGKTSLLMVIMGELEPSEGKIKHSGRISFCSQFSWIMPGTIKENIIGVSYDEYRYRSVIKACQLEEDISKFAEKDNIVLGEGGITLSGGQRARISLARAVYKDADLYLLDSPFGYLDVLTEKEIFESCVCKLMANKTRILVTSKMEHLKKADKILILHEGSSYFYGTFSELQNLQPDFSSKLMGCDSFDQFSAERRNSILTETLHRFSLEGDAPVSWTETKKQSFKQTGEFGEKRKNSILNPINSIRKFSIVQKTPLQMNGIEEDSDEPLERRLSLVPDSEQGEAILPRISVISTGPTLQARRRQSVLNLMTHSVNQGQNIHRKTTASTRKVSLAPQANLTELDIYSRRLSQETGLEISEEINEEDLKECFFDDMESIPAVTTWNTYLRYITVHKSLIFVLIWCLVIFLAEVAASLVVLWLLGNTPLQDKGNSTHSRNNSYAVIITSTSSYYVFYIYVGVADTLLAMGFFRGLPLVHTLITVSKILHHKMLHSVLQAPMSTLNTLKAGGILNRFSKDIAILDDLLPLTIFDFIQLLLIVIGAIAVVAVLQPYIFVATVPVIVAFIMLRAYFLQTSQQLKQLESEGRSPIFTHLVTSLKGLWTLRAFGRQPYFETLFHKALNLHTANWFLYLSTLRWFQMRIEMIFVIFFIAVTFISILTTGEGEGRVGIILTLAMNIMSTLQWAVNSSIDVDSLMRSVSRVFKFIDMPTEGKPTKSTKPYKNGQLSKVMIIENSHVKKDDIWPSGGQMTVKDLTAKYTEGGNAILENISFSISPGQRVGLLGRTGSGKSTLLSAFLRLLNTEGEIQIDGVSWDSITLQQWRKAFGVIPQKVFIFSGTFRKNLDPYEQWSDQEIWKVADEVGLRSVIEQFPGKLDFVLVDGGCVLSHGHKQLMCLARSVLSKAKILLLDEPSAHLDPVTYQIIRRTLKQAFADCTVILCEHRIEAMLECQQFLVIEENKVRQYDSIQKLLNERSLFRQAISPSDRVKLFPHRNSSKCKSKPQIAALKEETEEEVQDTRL

Structure (SMILES)	% Activity	EC50
O=C(Nc1ccccc1-c1cc(F)cc(F)c1)c1c[nH]c2ccccc2c1=O [Compound 138, N-[2-(3,5-difluorophenyl)phenyl]-4-oxo-1H-quinoline-3-carboxamide]	++ (between 25% to 100%)	
O=C(Nc1ccccc1-c1ccc(Cl)cc1Cl)c1c[nH]c2ccccc2c1=O [Compound 139, N-[2-(2,4-dichlorophenyl)phenyl]-4-oxo-1H-quinoline-3-carboxamide]	++ (between 25% to 100%)	
O=C(Nc1ccc(C2CCCCC2)cc1)c1c[nH]c2ccccc2c1=O [Compound 140, N-(4-cyclohexylphenyl)-4-oxo-1H-quinoline-3-carboxamide]	++ (between 25% to 100%)	
CCOC(=O)Nc1cc(NC(=O)c2c[nH]c3ccccc3c2=O)ccc1C [Compound 141, [2-methyl-5-[(4-oxo-1H-quinolin-3-yl)carbonylamino]phenyl]aminoformic acid ethyl ester]	++ (between 25% to 100%)	10 to 25 µM
CCC(C)c1ccccc1NC(=O)c1c[nH]c2ccccc2c1=O (stereo not drawn) [Compound 142, 4-oxo-N-(2-sec-butylphenyl)-1H-quinoline-3-carboxamide]	++ (between 25% to 100%)	< 10 µM
CC(C)(C)c1cc(F)c(NC(=O)c2c[nH]c3ccccc3c2=O)cc1O [Compound 143, N-(2-fluoro-5-hydroxy-4-tert-butyl-phenyl)-4-oxo-1H-quinoline-3-carboxamide]	++ (between 25% to 100%)	< 10 µM
O=C(Nc1cccc(O)c1)c1c[nH]c2ccccc2c1=O [Compound 144, N-(3-hydroxyphenyl)-4-oxo-1H-quinoline-3-carboxamide]	++ (between 25% to 100%)	< 10 µM
CCOC(=O)c1cc(NC(=O)c2c[nH]c3ccccc3c2=O)cc2[nH]ccc12 [Compound 145, 6-[(4-oxo-1H-quinolin-3-yl)carbonylamino]-1H-indole-4-carboxylic acid ethyl ester]	++ (between 25% to 100%)	
O=C(Nc1cccn2ncnc12)c1c[nH]c2ccccc2c1=O [Compound 146, 4-oxo-N-(1,7,9-triazabicyclo[4.3.0]nona-2,4,6,8-tetraen-5-yl)-1H-quinoline-3-carboxamide]	+ (<25%)	25 to 60 µM
O=C(Nc1cccnc1Oc1ccc(F)cc1)c1c[nH]c2ccccc2c1=O [Compound 147, N-[2-(4-fluorophenoxy)-3-pyridyl]-4-oxo-1H-quinoline-3-carboxamide]	++ (between 25% to 100%)	< 10 µM
O=C(Nc1cc2[nH]ccc2cc1C(=O)N1CCCCC1)c1c[nH]c2ccccc2c1=O [Compound 148, 4-oxo-N-[5-(1-piperidylcarbonyl)-1H-indol-6-yl]-1H-quinoline-3-carboxamide]	++ (between 25% to 100%)	< 10 µM
CCc1ccc(NC(=O)c2c[nH]c3ccccc3c2=O)cc1NC(C)=O [Compound 149, N-(3-acetylamino-4-ethyl-phenyl)-4-oxo-1H-quinoline-3-carboxamide]	++ (between 25% to 100%)	10 to 25 µM
O=C(Nc1ccc(C(O)(C(F)(F)F)C(F)(F)F)cc1)c1c[nH]c2ccccc2c1=O [Compound 150, 4-oxo-N-[4-[2,2,2-trifluoro-1-hydroxy-1-(trifluoromethyl)ethyl]phenyl]-1H-quinoline-3-carboxamide]	++ (between 25% to 100%)	< 10 µM
Cc1csc(-c2ccccc2NC(=O)c2c[nH]c3ccccc3c2=O)c1 [Compound 151, N-[2-(4-methyl-2-thienyl)phenyl]-4-oxo-1H-quinoline-3-carboxamide]	++ (between 25% to 100%)	< 10 µM
O=C(Nc1ccc2[nH]c(=O)oc2c1)c1c[nH]c2ccccc2c1=O [Compound 152, 4-oxo-N-(2-oxo-3H-benzooxazol-6-yl)-1H-quinoline-3-carboxamide]	+ (<25%)	25 to 60 µM
CCC(CC)(c1cc(F)c(NC(=O)c2cnc3ccccc3c2O)cc1O)C(C)(C)C [Compound 153, N-[4-(1,1-diethyl-2,2-dimethyl-propyl)-2-fluoro-5-hydroxy-phenyl]-4-hydroxy-quinoline-3-carboxamide]	++ (between 25% to 100%)	< 10 µM
O=C(Nc1cc(C(F)(F)F)cc(C(F)(F)F)c1)c1c[nH]c2ccccc2c1=O [Compound 154, N-[3,5-bis(trifluoromethyl)phenyl]-4-oxo-1H-quinoline-3-carboxamide]	+ (<25%)	25 to 60 µM
O=C(Nc1ccccn1)c1c[nH]c2ccccc2c1=O [Compound 155, 4-oxo-N-(2-pyridyl)-1H-quinoline-3-carboxamide]	+ (<25%)	25 to 60 µM
O=C(Nc1ccccc1-c1ccccc1OC(F)(F)F)c1c[nH]c2ccccc2c1=O [Compound 156, 4-oxo-N-[2-[2-(trifluoromethoxy)phenyl]phenyl]-1H-quinoline-3-carboxamide]	++ (between 25% to 100%)	< 10 µM

Structure (SMILES)	% Activity	EC50
CCc1ccc(NC)cc1NC(=O)c1c[nH]c2ccccc2c1=O [Compound 157, N-(2-ethyl-5-methylamino-phenyl)-4-oxo-1H-quinoline-3-carboxamide]	++ (between 25% to 100%)	< 10 µM
O=C(Nc1cc2[nH]ccc2cc1-c1ccccc1)c1c[nH]c2ccccc2c1=O [Compound 158, 4-Oxo-N-(5-phenyl-1H-indol-6-yl)-1H-quinoline-3-carboxamide]	++ (between 25% to 100%)	< 10 µM
COC(=O)NC1CCCc2ccc(NC(=O)c3c[nH]c4ccccc4c3=O)cc21 (stereo not drawn) [Compound 159, [7-[(4-Oxo-1H-quinolin-3-yl)carbonylamino]tetralin-1-yl]aminoformic acid methyl ester]	++ (between 25% to 100%)	10 to 25 µM
CCCc1ccc(NC(=O)c2c[nH]c3ccccc3c2=O)cc1N [Compound 160, N-(3-amino-4-propyl-phenyl)-4-oxo-1H-quinoline-3-carboxamide]	++ (between 25% to 100%)	< 10 µM
CCOCCOc1cc(NC(=O)c2c[nH]c3ccccc3c2=O)ccc1C(C)(C)C [Compound 161, N-[3-(2-ethoxyethoxy)-4-tert-butyl-phenyl]-4-oxo-1H-quinoline-3-carboxamide]	++ (between 25% to 100%)	< 10 µM
COc1ccc(NC(=O)c2c[nH]c3ccccc3c2=O)cn1 [Compound 162, N-(6-methoxy-3-pyridyl)-4-oxo-1H-quinoline-3-carboxamide]	+ (<25%)	25 to 60 µM
CCOc1ccccc1-c1ccc(CN)cc1NC(=O)c1c[nH]c2ccccc2c1=O [Compound 163, 4-Oxo-1,4-dihydro-quinoline-3-carboxylic acid (4-aminomethyl-2′-ethoxy-biphenyl-2-yl)-amide]	++ (between 25% to 100%)	10 to 25 µM
O=C(Nc1cccc(C(F)(F)F)c1)c1c[nH]c2ccccc2c1=O [Compound 164, 4-oxo-N-[3-(trifluoromethyl)phenyl]-1H-quinoline-3-carboxamide]	++ (between 25% to 100%)	< 10 µM
NS(=O)(=O)c1ccc(NC(=O)c2c[nH]c3ccccc3c2=O)cc1 [Compound 165, 4-oxo-N-(4-sulfamoylphenyl)-1H-quinoline-3-carboxamide]	+ (<25%)	25 to 60 µM
COC(=O)c1ccc(-c2ccccc2NC(=O)c2c[nH]c3ccccc3c2=O)cc1 [Compound 166, 4-[2-[(4-oxo-1H-quinolin-3-yl)carbonylamino]phenyl]benzoic acid methyl ester]	++ (between 25% to 100%)	< 10 µM
Cc1ccc(NC(=O)c2c[nH]c3ccccc3c2=O)cc1N [Compound 167, N-(3-amino-4-methyl-phenyl)-4-oxo-1H-quinoline-3-carboxamide]	++ (between 25% to 100%)	10 to 25 µM
O=C(Nc1cccnc1)c1c[nH]c2ccccc2c1=O [Compound 168, 4-oxo-N-(3-pyridyl)-1H-quinoline-3-carboxamide]	+ (<25%)	25 to 60 µM
Cn1ccc2ccc(NC(=O)c3c[nH]c4ccccc4c3=O)cc21 [Compound 169, N-(1-methyl-1H-indol-6-yl)-4-oxo-1H-quinoline-3-carboxamide]	++ (between 25% to 100%)	10 to 25 µM
O=C(Nc1ccc(Cl)cn1)c1c[nH]c2ccccc2c1=O [Compound 170, N-(5-chloro-2-pyridyl)-4-oxo-1H-quinoline-3-carboxamide]	+ (<25%)	25 to 60 µM
O=C(Nc1ccccc1-c1cccc(Cl)c1Cl)c1c[nH]c2ccccc2c1=O [Compound 171, N-[2-(2,3-dichlorophenyl)phenyl]-4-oxo-1H-quinoline-3-carboxamide]	++ (between 25% to 100%)	< 10 µM
O=C(Nc1ccccc1-c1cc2ccccc2s1)c1c[nH]c2ccccc2c1=O [Compound 172, N-(2-(benzo[b]thiophen-2-yl)phenyl)-1,4-dihydro-4-oxoquinoline-3-carboxamide]	++ (between 25% to 100%)	< 10 µM
Cc1cccc(NC(=O)c2c[nH]c3ccccc3c2=O)n1 [Compound 173, N-(6-methyl-2-pyridyl)-4-oxo-1H-quinoline-3-carboxamide]	+ (<25%)	25 to 60 µM
CC(=O)c1ccc(-c2ccccc2NC(=O)c2c[nH]c3ccccc3c2=O)s1 [Compound 174, N-[2-(5-acetyl-2-thienyl)phenyl]-4-oxo-1H-quinoline-3-carboxamide]	++ (between 25% to 100%)	< 10 µM
CC(=O)N1CC2(CC2)c2ccc(NC(=O)c3c[nH]c4ccccc4c3=O)cc21 [Compound 175, 4-Oxo-1,4-dihydro-quinoline-3-carboxylic acid N-(1′-Acetyl-1′,2′-dihydrospiro[cyclopropane-1,3′-3H-indol]-6′-yl)-amide]	++ (between 25% to 100%)	10 to 25 µM
